Results as given in ChEMBL document CHEMBL1909046, “DrugMatrix in vitro pharmacology data”.

Legend:
[1] = biological target: T1, Vasoactive intestinal polypeptide receptor 1 (Homo sapiens, UniProt P32241); type: cell membranes, Membrane; settings: ht-29; further: in other assays of this panel Not Active means under 50% inhibition at 10 µM
T1 sequence (P32241 whole entry): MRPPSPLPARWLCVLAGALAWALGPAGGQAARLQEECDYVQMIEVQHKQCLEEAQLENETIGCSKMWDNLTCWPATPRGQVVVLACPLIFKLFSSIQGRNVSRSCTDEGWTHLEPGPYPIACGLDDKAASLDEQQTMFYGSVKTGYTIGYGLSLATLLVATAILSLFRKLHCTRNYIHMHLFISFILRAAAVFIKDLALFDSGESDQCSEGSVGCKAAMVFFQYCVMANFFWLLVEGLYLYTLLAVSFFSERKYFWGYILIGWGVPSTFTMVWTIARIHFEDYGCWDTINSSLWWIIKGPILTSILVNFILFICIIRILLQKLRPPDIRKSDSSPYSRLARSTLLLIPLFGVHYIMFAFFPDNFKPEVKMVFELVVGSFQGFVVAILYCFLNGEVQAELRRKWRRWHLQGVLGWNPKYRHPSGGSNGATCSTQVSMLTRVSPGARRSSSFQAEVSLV

[2] = biological target: Histamine H2 receptor (Homo sapiens, UniProt P25021); type: cell membranes, CHO-K1, Membrane; settings: cho-k1; further: in other assays of this panel Not Active means under 50% inhibition at 10 µM
[3] = DRUGMATRIX: Purinergic P2X radioligand binding (ligand: [3H] alpha, beta-Methylene-ATP); type: cell membranes, Oryctolagus cuniculus, New Zealand albino, Urinary bladder, Membrane; settings: Not Active = under 50% inhibition at 10 µM
[4] = biological target: T2, Amine oxidase [flavin-containing] A (Homo sapiens, UniProt P21397); experiment: DRUGMATRIX: Monoamine Oxidase MAO-A enzyme inhibition (substrate: Kynuramine); parameters: species or system BTI-TN-5B1-4; settings: bti-tn-5b1-4; Not Active = under 50% inhibition at 10 µM
T2 sequence (P21397 whole entry): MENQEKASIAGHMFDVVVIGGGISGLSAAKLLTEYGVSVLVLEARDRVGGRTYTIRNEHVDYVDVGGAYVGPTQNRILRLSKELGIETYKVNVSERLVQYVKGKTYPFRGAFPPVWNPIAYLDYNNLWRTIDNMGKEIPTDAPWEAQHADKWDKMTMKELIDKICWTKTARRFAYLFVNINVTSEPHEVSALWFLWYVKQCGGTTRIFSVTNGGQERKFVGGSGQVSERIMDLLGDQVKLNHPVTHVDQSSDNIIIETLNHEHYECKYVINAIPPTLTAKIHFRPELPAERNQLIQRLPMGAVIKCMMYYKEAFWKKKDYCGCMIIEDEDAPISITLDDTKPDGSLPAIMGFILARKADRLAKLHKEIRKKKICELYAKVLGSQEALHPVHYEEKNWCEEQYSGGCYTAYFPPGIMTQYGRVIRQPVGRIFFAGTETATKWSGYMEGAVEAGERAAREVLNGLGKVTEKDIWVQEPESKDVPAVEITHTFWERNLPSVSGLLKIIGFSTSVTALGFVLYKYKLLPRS

[5] = biological target: Prostaglandin G/H synthase 1 (Homo sapiens, UniProt P23219); experiment: biochemical; type: tissue-based, Platelet; settings: platelet;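 further: inhibition of COX-1 enzyme activity, with arachidonic acid supplied as substrate; in other assays of this panel Not Active means under 50% inhibition at 10 µM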
[6] = biological target: T3, Estrogen receptor (Homo sapiens, UniProt P03372); settings: sf9; further: in other assays of this panel Not Active means under 50% inhibition at 10 µM
T3 sequence (P03372 whole entry): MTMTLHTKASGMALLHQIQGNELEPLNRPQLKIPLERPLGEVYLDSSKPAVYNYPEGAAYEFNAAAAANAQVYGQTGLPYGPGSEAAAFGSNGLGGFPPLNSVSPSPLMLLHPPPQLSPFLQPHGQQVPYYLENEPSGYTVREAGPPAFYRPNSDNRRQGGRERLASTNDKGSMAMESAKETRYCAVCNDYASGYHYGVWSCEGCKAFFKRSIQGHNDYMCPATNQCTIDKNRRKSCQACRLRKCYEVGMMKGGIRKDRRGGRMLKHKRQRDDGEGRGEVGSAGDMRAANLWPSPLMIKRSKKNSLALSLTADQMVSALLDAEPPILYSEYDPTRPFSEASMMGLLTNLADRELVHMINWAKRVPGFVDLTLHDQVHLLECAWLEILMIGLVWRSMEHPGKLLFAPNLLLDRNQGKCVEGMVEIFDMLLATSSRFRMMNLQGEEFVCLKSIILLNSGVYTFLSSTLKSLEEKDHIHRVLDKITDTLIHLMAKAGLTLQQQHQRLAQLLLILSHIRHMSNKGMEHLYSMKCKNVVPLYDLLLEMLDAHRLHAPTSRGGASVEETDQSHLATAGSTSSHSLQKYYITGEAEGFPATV

Prostaglandin G/H synthase 1, sequence (P23219 whole entry): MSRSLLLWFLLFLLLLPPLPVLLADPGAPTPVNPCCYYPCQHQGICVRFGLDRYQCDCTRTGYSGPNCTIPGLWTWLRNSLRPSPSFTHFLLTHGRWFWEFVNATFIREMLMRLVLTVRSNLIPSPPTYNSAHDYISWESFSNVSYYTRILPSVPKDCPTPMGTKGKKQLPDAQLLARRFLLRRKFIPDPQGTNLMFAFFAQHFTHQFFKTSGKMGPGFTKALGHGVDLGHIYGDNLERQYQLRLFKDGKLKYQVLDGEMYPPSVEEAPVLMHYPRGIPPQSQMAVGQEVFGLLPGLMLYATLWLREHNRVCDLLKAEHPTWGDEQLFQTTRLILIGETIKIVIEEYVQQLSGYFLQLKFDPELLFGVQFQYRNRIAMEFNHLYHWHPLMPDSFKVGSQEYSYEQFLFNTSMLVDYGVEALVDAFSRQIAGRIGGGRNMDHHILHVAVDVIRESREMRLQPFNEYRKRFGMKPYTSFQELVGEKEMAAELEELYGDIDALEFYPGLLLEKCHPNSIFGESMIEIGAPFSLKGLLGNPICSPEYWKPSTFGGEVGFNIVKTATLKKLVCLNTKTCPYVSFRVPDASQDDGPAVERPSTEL
Histamine H2 receptor, sequence (P25021 whole entry): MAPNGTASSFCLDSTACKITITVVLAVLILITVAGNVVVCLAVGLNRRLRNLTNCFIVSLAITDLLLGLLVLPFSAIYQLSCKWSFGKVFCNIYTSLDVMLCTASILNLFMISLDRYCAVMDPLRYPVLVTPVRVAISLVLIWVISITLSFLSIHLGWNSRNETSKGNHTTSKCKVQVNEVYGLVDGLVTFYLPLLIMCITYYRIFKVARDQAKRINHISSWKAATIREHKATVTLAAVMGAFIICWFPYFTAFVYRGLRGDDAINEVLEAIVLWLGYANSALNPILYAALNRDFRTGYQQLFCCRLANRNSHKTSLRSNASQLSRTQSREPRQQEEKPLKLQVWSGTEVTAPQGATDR

C[C@@H]1CC[C@@]2(OC1)O[C@H]1[C@@H](O)[C@H]3[C@@H]4CC[C@H]5C[C@@H](O[C@@H]6O[C@H](CO)[C@H](O[C@@H]7O[C@H](CO)C(O)[C@H](O[C@@H]8OC[C@@H](O)[C@H](O)[C@H]8O)[C@H]7O[C@@H]7O[C@H](CO)[C@H](O)[C@H](O[C@@H]8O[C@H](CO)[C@@H](O)[C@H](O)[C@H]8O)[C@H]7O)[C@H](O)[C@H]6O)[C@H](O)C[C@]5(C)[C@H]4CC[C@]3(C)[C@H]1[C@@H]2C (stereo partly drawn) [DIGITONIN]
Not Active: IC50 [1] | IC50 [2] | IC50 [3] | Ki [3] | IC50 [4] | IC50 [5] | IC50 [6]

OC(CCCN1CCCCC1)(c1ccccc1)c1ccccc1 [DIPHENIDOL]
Not Active: IC50 [1] | IC50 [2] | IC50 [3] | Ki [3] | IC50 [4] | IC50 [5] | IC50 [6]

Cn1c(=O)c2c(ncn2CC(O)CO)n(C)c1=O (stereo not drawn) [DYPHYLLINE]
Not Active: IC50 [1] | IC50 [2] | IC50 [3] | Ki [3] | IC50 [4] | IC50 [5] | IC50 [6]

CCC1(C)CC(=O)NC1=O (stereo not drawn) [ETHOSUXIMIDE]
Not Active: IC50 [1] | IC50 [2] | IC50 [3] | Ki [3] | IC50 [4] | IC50 [5] | IC50 [6]

C=CCc1ccc(O)c(OC)c1 [EUGENOL]
Not Active: IC50 [1] | IC50 [2] | IC50 [3] | Ki [3] | IC50 [4] | IC50 [5] | IC50 [6]

CC(C)(C)NC(=O)[C@H]1CC[C@H]2[C@@H]3CC[C@H]4NC(=O)C=C[C@]4(C)[C@H]3CC[C@]12C [FINASTERIDE]
Not Active: IC50 [1] | IC50 [2] | IC50 [3] | Ki [3] | IC50 [4] | IC50 [5] | IC50 [6]

COc1ccc2c3c1O[C@H]1C[C@@H](O)C=C[C@@]31CCN(C)C2 [GALANTAMINE]
Not Active: IC50 [1] | IC50 [2] | IC50 [3] | Ki [3] | IC50 [4] | IC50 [5] | IC50 [6]

Nc1ccn([C@@H]2O[C@H](CO)[C@@H](O)C2(F)F)c(=O)n1 [GEMCITABINE]
Not Active: IC50 [1] | IC50 [2] | IC50 [3] | Ki [3] | IC50 [4] | IC50 [5] | IC50 [6]

COC1=C(OC)C(=O)C(CCCCCCCCCCO)=C(C)C1=O [IDEBENONE]
Not Active: IC50 [1] | IC50 [2] | IC50 [3] | Ki [3] | IC50 [4] | IC50 [5] | IC50 [6]

CC(C)NNC(=O)c1ccncc1 [IPRONIAZID]
Not Active: IC50 [1] | IC50 [2] | IC50 [3] | Ki [3] | IC50 [4] | IC50 [5] | IC50 [6]

O=c1cc(N2CCOCC2)oc2c(-c3ccccc3)cccc12 [LY-294002]
Not Active: IC50 [1] | IC50 [2] | IC50 [3] | Ki [3] | IC50 [4] | IC50 [5] | IC50 [6]

COc1ccc2[nH]cc(CCNC(C)=O)c2c1 [MELATONIN]
Not Active: IC50 [1] | IC50 [2] | IC50 [3] | Ki [3] | IC50 [4] | IC50 [5] | IC50 [6]

NC(=O)C[S+]([O-])C(c1ccccc1)c1ccccc1 (stereo not drawn) [MODAFINIL]
Not Active: IC50 [1] | IC50 [2] | IC50 [3] | Ki [3] | IC50 [4] | IC50 [5] | IC50 [6]

CCN(CC)CCOCCC1=CCC2CC1C2(C)C (stereo not drawn) [MYRTECAINE]
Not Active: IC50 [1] | IC50 [2] | IC50 [3] | Ki [3] | IC50 [4] | IC50 [5] | IC50 [6]

C#CC1(O)CC[C@H]2[C@@H]3CCC4=CC(=O)CC[C@@H]4[C@H]3CC[C@@]21CC (stereo partly drawn) [NORGESTREL]
Not Active: IC50 [1] | IC50 [2] | IC50 [3] | Ki [3] | IC50 [4] | IC50 [5] | IC50 [6]

COC(=O)Nc1nc2ccc([S+]([O-])c3ccccc3)cc2[nH]1 (stereo not drawn) [OXFENDAZOLE]
Not Active: IC50 [1] | IC50 [2] | IC50 [3] | Ki [3] | IC50 [4] | IC50 [5] | IC50 [6]

CC(=O)O[C@H]1C(=O)[C@@]2(C)[C@H]([C@H](OC(=O)c3ccccc3)[C@]3(O)C[C@H](OC(=O)[C@H](O)[C@@H](NC(=O)c4ccccc4)c4ccccc4)C(C)=C1C3(C)C)[C@]1(OC(C)=O)CO[C@@H]1C[C@@H]2O [PACLITAXEL]
Not Active: IC50 [1] | IC50 [2] | IC50 [3] | Ki [3] | IC50 [4] | IC50 [5] | IC50 [6]

C[n+]1ccc(-c2cc[n+](C)cc2)cc1.[Cl-].[Cl-] [PARAQUAT DICHLORIDE]
Not Active: IC50 [1] | IC50 [2] | IC50 [3] | Ki [3] | IC50 [4] | IC50 [5] | IC50 [6]

C[n+]1ccccc1/C=N/O.[Cl-] [PRALIDOXIME CHLORIDE]
Not Active: IC50 [1] | IC50 [2] | IC50 [3] | Ki [3] | IC50 [4] | IC50 [5] | IC50 [6]
